For 21 compounds, IC50 results are on record in patent US20240293392A1, “INHIBITOR COMPOUNDS” (NeoPhore Limited, priority 2021, published 2024).

Assay [1] concerns the target T1, recombinant N-terminal PMS2 (residues 1-365) (Homo sapiens, UniProt P54278).
T1 construct: recombinant N-terminal PMS2 (residues 1-365)
T1 sequence (P54278 1-365): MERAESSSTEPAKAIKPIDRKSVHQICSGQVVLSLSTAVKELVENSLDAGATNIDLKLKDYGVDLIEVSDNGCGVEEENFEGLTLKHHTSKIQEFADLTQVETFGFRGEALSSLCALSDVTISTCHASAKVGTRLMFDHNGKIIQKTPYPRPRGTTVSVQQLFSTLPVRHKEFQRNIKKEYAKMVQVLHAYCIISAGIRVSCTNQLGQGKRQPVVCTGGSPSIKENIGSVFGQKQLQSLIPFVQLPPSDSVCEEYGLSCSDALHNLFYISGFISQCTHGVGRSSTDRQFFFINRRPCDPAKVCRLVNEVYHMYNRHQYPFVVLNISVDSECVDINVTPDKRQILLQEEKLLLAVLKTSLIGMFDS
Description: Fluorescence Polarisation Assay for PMS2. The settings on record: fluorescence polarisation probe displacement; 10 nM N-terminal PMS2, 5 nM probe compound; read-out: PMS2 IC50. The assay is classed as binding. The procedure, abridged: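 Competition fluorescence polarisation with 10 nM N-terminal PMS2 and 5 nM fluorescent probe (final), read after 1 h at room temperature following 30 min compound pre-incubation. Data normalised to no-inhibitor and no-enzyme controls; single-point screening or serial dilutions for potency.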
A general note: Fluorescence polarisation rises when a labelled molecule tumbles more slowly, as on binding a larger partner.

In assay [2] the target is T2, recombinant N-terminal MLH1 (residues 15-340) (Homo sapiens, UniProt P40692).
T2 construct: recombinant N-terminal MLH1 (residues 15-340)
T2 sequence (P40692 15-340): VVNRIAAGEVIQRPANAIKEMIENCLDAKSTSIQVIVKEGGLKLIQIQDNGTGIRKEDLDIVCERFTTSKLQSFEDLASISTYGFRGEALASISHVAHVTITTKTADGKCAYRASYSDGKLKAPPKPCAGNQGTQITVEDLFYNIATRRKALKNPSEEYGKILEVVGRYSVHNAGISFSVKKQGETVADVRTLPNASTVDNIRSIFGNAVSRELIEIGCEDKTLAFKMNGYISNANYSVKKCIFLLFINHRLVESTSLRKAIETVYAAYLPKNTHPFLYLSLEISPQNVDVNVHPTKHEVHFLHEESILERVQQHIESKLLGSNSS
Description: Fluorescence Polarisation Assay for MLH1. It is filed as binding. The settings on record: fluorescence polarisation probe displacement; 100 nM N-terminal MLH1, 5 nM probe compound. The method, boiled down: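 FP displacement assay: 100 nM MLH1 (residues 15-340) preincubated 30 min at room temperature with compound in 25 mM HEPES pH 7.5, 250 mM NaCl, 10 mM MgCl2, 0.01% Triton X-100, 5 mM DTT, then 5 nM rhodamine-labelled probe added and read immediately. Data normalised to no-inhibitor and no-enzyme controls.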

One may read the IC50 as the concentration needed to halve the response being measured. As for `CC(=O)N1CCC[C@H](Nc2cccc3c2CN(C(=O)c2c(O)cc(O)cc2OCc2ccccc2)CC3)C1` [Example 67, (S)-1-(3-((2-(2-(Benzyloxy)-4,6-dihydroxybenzoyl)-1,2,3,4-tetrahydroisoquinolin-8-yl)amino)piperidin-1-yl)ethan-1-one], the IC50 in assay [1] was over 10000 nM; in assay [2], 1000 to 10000 nM.
With `CN1CC(Nc2cccc3c2CN(C(=O)c2c(O)cc(O)cc2OCc2ccccc2)CC3)CCC1=O` (stereo not drawn) [Example 70, 5-((2-(2-(Benzyloxy)-4,6-dihydroxybenzoyl)-1,2,3,4-tetrahydroisoquinolin-8-yl)amino)-1-methylpiperidin-2-one], the IC50 was over 10000 nM in assay [1] and under 1000 nM in assay [2].
With `Cn1cc(Nc2cccc3c2CN(C(=O)c2c(O)cc(O)cc2OCc2ccccc2)CC3)ccc1=O` [Example 135, 5-((2-(2-(Benzyloxy)-4,6-dihydroxybenzoyl)-1,2,3,4-tetrahydroisoquinolin-8-yl)amino)-1-methylpyridin-2(1H)-one], the IC50 in assay [1] was 1000 to 10000 nM; in assay [2] it was under 1000 nM.
Turning to `COc1ccc2c(c1)CCN(C(=O)c1c(O)cc(O)cc1OCc1ccccc1)C2` [Example 48, (2-Benzyloxy-4,6-dihydroxy-phenyl)-(6-methoxy-3,4-dihydro-1H-isoquinolin-2-yl)methanone], the IC50 in assay [1] and in assay [2] was 1000 to 10000 nM throughout.
Consider `CN(C)Cc1ccc2c(c1)CN(C(=O)c1c(O)cc(O)cc1OCc1ccccc1)CC2` [Example 47, (2-Benzyloxy-4,6-dihydroxy-phenyl)-[7-[(dimethylamino)methyl]-3,4-dihydro-1H-isoquinolin-2-yl]methanone], for which the IC50 in assay [1] and in assay [2] was 1000 to 10000 nM each time.
As to `O=C(c1c(O)cc(O)cc1OCC1CCCCC1)N1Cc2cccc(NC3CCOC3)c2C1` (stereo not drawn) [Example 26, (2-(cyclohexylmethoxy)-4,6-dihydroxyphenyl)(4-((tetrahydrofuran-3-yl)amino)isoindolin-2-yl)methanone], the concentration for half-maximal inhibition (IC50) in assay [1] and in assay [2] was 1000 to 10000 nM in each case.
On to `CN1CCC(Nc2cccc3c2CN(C(=O)c2c(O)cc(O)cc2OCc2ccccc2)CC3)CC1=O` (stereo not drawn) [Example 114, 4-((2-(2-(Benzyloxy)-4,6-dihydroxybenzoyl)-1,2,3,4-tetrahydroisoquinolin-8-yl)amino)-1-methylpiperidin-2-one], for which the IC50 in assay [1] is over 10000 nM; in assay [2], 1000 to 10000 nM.
The matching figures for `Cn1ncc(Nc2cccc3c2CN(C(=O)c2c(O)cc(O)cc2OCc2ccccc2)C3)n1` [Example 35, (2-(Benzyloxy)-4,6-dihydroxyphenyl)(4-((2-methyl-2H-1,2,3-triazol-4-yl)amino)isoindolin-2-yl)methanone]: 1000 to 10000 nM and under 1000 nM.
In the case of `COCCCC(=O)N1CC[C@H](Nc2cccc3c2CN(C(=O)c2c(O)cc(O)cc2OCc2ccccc2)CC3)C1` [Example 151, (S)-1-(3-((2-(2-(Benzyloxy)-4,6-dihydroxybenzoyl)-1,2,3,4-tetrahydroisoquinolin-8-yl)amino)pyrrolidin-1-yl)-4-methoxybutan-1-one], the figures for the IC50 in assay [1] and in assay [2] were over 10000 nM and under 1000 nM, respectively.
Regarding `O=C(c1c(O)cc(O)cc1OCc1ccccc1)N1Cc2ccccc2C1CO` (stereo not drawn) [Example 13, (2-(Benzyloxy)-4,6-dihydroxyphenyl)(1-(hydroxymethyl)isoindolin-2-yl)methanone], the IC50 is 1000 to 10000 nM in assay [1] and under 1000 nM in assay [2].
For the compound `CN(C)C(=O)c1cc2c(c(N[C@@H]3CCOC3)c1)CN(C(=O)c1c(O)cc(O)cc1OCc1ccccc1)CC2` [Example 129, (R)-2-(2-(Benzyloxy)-4,6-dihydroxybenzoyl)-N,N-dimethyl-8-((tetrahydrofuran-3-yl)amino)-1,2,3,4-tetrahydroisoquinoline-6-carboxamide], the 50% inhibitory concentration (IC50) was 1000 to 10000 nM in assay [1] and under 1000 nM in assay [2].
In the case of `CC(C)(C)OC(=O)NCCCCCN1CCN(Cc2ccc3c(c2)CN(C(=O)c2c(O)cc(O)cc2OCc2ccccc2)C3)CC1` [Example 103, t-Butyl (5-(4-((2-(2-(benzyloxy)-4,6-dihydroxybenzoyl)isoindolin-5-yl)methyl)piperazin-1-yl)pentyl)carbamate], the IC50 in assay [1] and in assay [2] was under 1000 nM in each case.
On to `CC(=O)Nc1cccc2c1CN(C(=O)c1c(O)cc(O)cc1OCc1ccccc1)C2` [Example 94, N-(2-(2-(benzyloxy)-4,6-dihydroxybenzoyl)isoindolin-4-yl)acetamide], for which the IC50 in assay [1] and in assay [2] was 1000 to 10000 nM in each case.
With `Nc1cccc2c1CN(C(=O)c1c(O)cc(O)cc1OCc1ccccc1)CC2` [Example 100, 8-Amino-3,4-dihydroisoquinolin-2(1H)-yl(2-(benzyloxy)-4,6-dihydroxyphenyl)methanone], the concentration for half-maximal inhibition (IC50) in assay [1] and in assay [2] was 1000 to 10000 nM throughout.
Regarding `Nc1cccc2c1CN(C(=O)c1c(O)cc(O)cc1OCc1ccccc1)C2` [Example 93, (4-Aminoisoindolin-2-yl)(2-(benzyloxy)-4,6-dihydroxyphenyl)methanone], the half-maximal inhibitory concentration (IC50) is 1000 to 10000 nM in assay [1] and under 1000 nM in assay [2].
For `CC1(NCc2cccc3c2CN(C(=O)c2c(O)cc(O)cc2OCc2ccccc2)C3)COC1` [Example 82, (2-(Benzyloxy)-4,6-dihydroxyphenyl)(4-(((3-methyloxetan-3-yl)amino)methyl)isoindolin-2-yl)methanone], the values for the IC50 in assay [1] and in assay [2] were 1000 to 10000 nM and under 1000 nM, respectively.
For `CN(c1cccc2c1CN(C(=O)c1c(O)cc(O)cc1OCc1ccccc1)CC2)C1CCOC1` (stereo not drawn) [Example 143, (2-(Benzyloxy)-4,6-dihydroxyphenyl)(8-(methyl(tetrahydrofuran-3-yl)amino)-3,4-dihydroisoquinolin-2(1H)-yl)methanone], the IC50 in assay [1] and in assay [2] was over 10000 nM throughout.
On to `N#Cc1cccc2c1CN(C(=O)c1c(O)cc(O)cc1OCc1ccccc1)C2` [Example 91, 2-(2-(Benzyloxy)-4,6-dihydroxybenzoyl)isoindoline-4-carbonitrile], for which the IC50 is under 1000 nM in assay [1] and 1000 to 10000 nM in assay [2].
Take `COCCCC(=O)N1CC[C@H](N(C)c2cccc3c2CN(C(=O)c2c(O)cc(O)cc2OCc2ccccc2)CC3)C1` [Example 150, (S)-1-(3-((2-(2-(Benzyloxy)-4,6-dihydroxybenzoyl)-1,2,3,4-tetrahydroisoquinolin-8-yl) (methyl)amino)pyrrolidin-1-yl)-4-methoxybutan-1-one]: the figures for the 50% inhibitory concentration (IC50) in assay [1] and in assay [2] were over 10000 nM and 1000 to 10000 nM, respectively.
With `O=C(c1c(O)cc(O)cc1OCc1ccccc1)N1CCc2cccc(NC3COC3)c2C1` [Example 41, (2-(Benzyloxy)-4,6-dihydroxyphenyl)(8-(oxetan-3-ylamino)-3,4-dihydroisoquinolin-2(1H)-yl)methanone], the values for the concentration for half-maximal inhibition (IC50) in assay [1] and in assay [2] were 1000 to 10000 nM and under 1000 nM, respectively.
As for `O=C(c1c(O)cc(O)cc1OCc1ccccc1)N1CCc2cccc(NC3CCS(=O)(=O)C3)c2C1` (single isomer, unassigned) [Example 147b, (2-(Benzyloxy)-4,6-dihydroxyphenyl)(8-((1,1-dioxidotetrahydrothiophen-3-yl)amino)-3,4-dihydroisoquinolin-2(1H)-yl)methanone], the 50% inhibitory concentration (IC50) in assay [1] was 1000 to 10000 nM; in assay [2], under 1000 nM.
